Data: patent US8158635B2, “Solid forms comprising 4-[9-(tetrahydro-furan-3-yl)-8-(2,4,6-trifluoro-phenylamino)-9H-purin-2-ylamino]-cyclohexan-1-ol, compositions thereof, and uses therewith” (Signal Pharmaceuticals, LLC, priority 2006, dated 2012)

Assay: Stability during drying
Format: physicochemical
Conditions: temperatures up to about 40-45° C.
Protocol: In certain embodiments, Form A of the free base of Compound I is stable during drying at temperatures up to about 40-45° C. In certain embodiments, the crystallization and/or recrystallization of Form A of the free base of Compound I provides an effective means of purification by removing or reducing the levels of chemical impurities (such as, e.g., one or more of the chemical compounds provided in FIG. 14) in the resulting material. In certain embodiments, Form A of the free base of Compound I is substantially pure. […] In certain embodiments, Form A of the free base of Compound I is stable upon compression.
Crude 4-[9-(tetrahydro-furan-3-yl)-8-(2,4,6-trifluoro-phenylamino)-9H-purin-2-ylamino]-cyclohexan-1-ol (“Compound I”) (5 g) was dissolved in ethanol (35 ml, 7 vol) at reflux (78-82° C.). Water (75 ml, 15 vol) was added, maintaining the temperature above 75° C. The solution was seeded (0.5-1%) and allowed to cool to ambient temperature (20-25° C.) over 4-6 h. The product was collected by filtration and washed with water (25 ml, 5 vol) then dried (18 h, 40-45° C.) to yield Form A of the free base of Compound I as an off-white crystalline solid. Form A is the imine tautomer of 4-[9-(terahydro-furan-3-yl)-8-(2,4,6-trifluoro-phenylamino)-9H-purin-2-ylamino]-cyclonhexan-1-ol having the structure: […]

O[C@H]1CC[C@H](Nc2ncc3nc(Nc4c(F)cc(F)cc4F)n([C@H]4CCOC4)c3n2)CC1 (stereo in doubt) [Form A of the Free Base of Compound I, 4-[9-(tetrahydro-furan-3-yl)-8-(2,4,6-trifluoro-phenylamino)-9H-purin-2-ylamino]-cyclohexan-1-ol]
stability during drying: stable
